The subject of the assay is Helicobacter pylori. Kind of assay: Activity against Helicobacter pylori (MIC, Columbia agar (Oxoid), growth period of 4 days). Type of assay: cell-based. To be noted: 96 h, methodology of Tomoyuki Iwahi et al. The text has this:
The compounds according to the invention were investigated with respect to their activity against Helicobacter pylori following the methodology described by Tomoyuki Iwahi et al. (Antimicrobial Agents and Chemotherapy,1991, 490-496) using Columbia agar (Oxoid) and with a growth period of 4 days.
A word on the MIC: it is the smallest concentration in the dilution series that meets the test's criterion for growth inhibition. `Cc1c(C)[n+]2cccc(OCc3ccccc3)c2n1Cc1ccc(F)cc1` [Compound 3, 8-Benzyloxy-1-(4-fluorobenzyl)-2,3-dimethylimidazo-[1,2-a]pyridinium bromide] came in with an MIC not above 10 µg/mL.

On to `COC(=O)c1ccc(Cn2c(C)c(C)[n+]3cccc(OCc4ccccc4)c23)cc1` [Compound 4, 8-Benzyloxy-1-(4-methoxycarbonylbenzyl)-2,3-dimethylimidazo[1,2-a]pyridinium bromide], for which the MIC is not above 10 µg/mL.

Take `Cc1c(C)[n+]2cccc(OCc3ccccc3)c2n1CCc1ccccc1` [Compound 5, 8-Benzyloxy-2,3-dimethyl-1-phenethylimidazo[1,2-a]pyridinium bromide]: the MIC is not above 10 µg/mL.

`Cc1c(CC#N)[n+]2cccc(OCc3ccccc3)c2n1CCc1ccccc1` [Compound 6, 8-Benzyloxy-3-cyanomethyl-2-methyl-1-phenethylimidazo[1,2-a]pyridinium bromide]: the MIC was not above 10 µg/mL.

`C#CCc1c(C)n(CCc2ccccc2)c2c(OCc3ccccc3)ccc[n+]12` [Compound 7, 8-Benzyloxy-2-methyl-1-phenethyl-3-(2-propynyl)imidazo[1,2-a]pyridiniumbromide] had an MIC not above 10 µg/mL.

Regarding `Cc1c(C)[n+]2cccc(OCc3ccccc3)c2n1Cc1cc(F)cc(F)c1` [Compound 10, 8-Benzyloxy-1-(3,5-difluorobenzyl)-2,3-dimethylimidazo[1,2-a]pyridiniumbromide], the MIC is not above 10 µg/mL.

As for `Cc1c(C)[n+]2cccc(OCc3ccccc3)c2n1Cc1ccc2ccccc2c1` [Compound 12, 8-Benzyloxy-2,3-dimethyl-1-(2-naphthylmethyl)imidazo[1,2-a]pyridinium bromide], the MIC was not above 10 µg/mL.

As for `Cc1c(C)[n+]2cccc(OCc3ccccc3)c2n1Cc1cccc(C#N)c1` [Compound 13, 8-Benzyloxy-1-(3-cyanobenzyl)-2,3-dimethylimidazo[1,2-a]pyridinium bromide], the MIC was not above 10 µg/mL.

For `Cc1c(C)[n+]2cccc(OCc3ccccc3)c2n1Cc1ccc(-c2ccccc2)cc1` [Compound 18, 8-Benzyloxy-1-(4-biphenylmethyl)-2,3-dimethylimidazo[1,2-a]pyridinium bromide], the MIC was not above 10 µg/mL.
